The numbers were not newly measured in paper PMC9688808, “Discovery of Novel Lin28 Inhibitors to Suppress Cancer Cell Stemness” (Cancers, 2022), which cites them from elsewhere.

On the set-up of data set [1]: method as in PMID 29874593. The note with it: cited from earlier work.
Details of data set [2]: method as in PMID 29874593. The settings on record: at high uM concentrations; cited from earlier work.

With `CCOc1cccc2c1N[C@@H](c1ccc(C(=O)O)cc1)[C@H]1CC=C[C@@H]21` [Li71, reference compound], the solubility result in data set [1] is on record as “high solubility”. In data set [2], the cellular toxicity entry is “low cellular toxicity”.
